Laboratory results reported in patent US20250207131A1, “MODIFIED RNA AGENTS WITH REDUCED OFF-TARGET EFFECT” (Alnylam Pharmaceuticals, Inc., priority 2018, published 2025).
pIC50: −log10 of the molar value.

Test system: TTR
Assay: In vitro on-target activity, primary mouse hepatocytes, transfection, RT-qPCR (TTR siRNAs)
Type: cell-based
Conditions: for On-target TX: 10 nM, log2 transformed, relative to the parent
Protocol: Cell culture and transfections: Primary Mouse Hepatocytes (Thermo Fisher Scientific/Gibco) were transfected by adding 4.9 μL of Opti-MEM plus 0.1 μL of Lipofectamine RNAiMax per well (Invitrogen, cat #13778-150) to 5 μL of siRNA duplexes per well into a 384-well plate and incubated at room temperature for 15 minutes. 40 μL of Dulbecco's Modified Eagle Medium (Hep3b) or William's Medium (PMH) containing ˜5 ×10^3 cells were then added to the siRNA mixture. Cells were incubated for 24 hours at 37° C. and then processed for RNA purification. Experiments were performed at 10 nM and 0.1 nM doses of siRNA.
Total RNA isolation using DYNABEADS mRNA Isolation Kit: RNA was isolated using an automated protocol on a BioTek-EL406 platform using DYNABEADs (Invitrogen, cat #61012). Briefly, 70 μL of Lysis/Binding Buffer and 10 μL of lysis buffer containing 3 μL of magnetic beads were added to each well. Plates were incubated on an electromagnetic shaker for 10 minutes at room temperature and then magnetic beads were captured and the supernatant was removed. Bead-bound RNA was then washed 2 times with 150 μL Wash Buffer A and once with Wash Buffer B. Beads were then washed with 150 μL Elution Buffer, re-captured and supernatant removed.
cDNA synthesis using ABI High capacity cDNA reverse transcription kit (Applied Biosystems, cat #4368813): 12 μL of a master mix containing 1.2 μL 10× Buffer, 0.48 μL 25× dNTPs, 1.2 μL 10× Random primers, 0.6 μL Reverse Transcriptase, 0.6 μL RNase inhibitor and 7.92 μL of H2O per reaction was added to RNA isolated above. Plates were sealed, mixed, and incubated on an electromagnetic shaker for 10 minutes at room temperature, followed by 2 h 37° C.
Real time PCR: 2 μL of cDNA were added to a master mix containing 2 μL water, 0.5 μL of either an appropriate GAPDH TaqMan VIC Probe or the target probe and 5 μL Lightcycler 480 probe master mix (Roche, cat #04887301001) per well in a 384 well plate (Roche, cat #04887301001). Real time PCR was done in a LightCycler480 Real Time PCR system (Roche). Each duplex was tested in quadruplicate and data were normalized to cells transfected with a non-targeting control siRNA. To calculate relative fold change, real time data were analyzed using the ΔΔCt method and normalized to assays performed with cells transfected with a non-targeting control siRNA.
RT qPCR for Ttr mRNA quantification:_Primary mouse hepatocytes (PMH) were cultured in Williams E Medium with 10% fetal bovine serum. Transfection of cells using RNAiMAX reagent was done as per the manufacturer's recommended protocol. Thus, cells were thawed immediately prior to transfection and then plated onto 384-well plates with a seed density of ˜5000 cells/well. Pre-incubated lipid/siRNA complex (0.1 μL RNAiMax, siRNA, in 5 μL Opti-MEM for 15 min) was added to a 384-well collagen-coated plate (BioCoat; Corning) and cells were incubated for 20 h at 37° C. in an atmosphere of 5% CO2. Eight 6-fold serial dilutions ranging from 10 to 0.036 nM were used to perform dose response experiments. Media was removed before washing and lysing the cells. Using Dynabeads mRNA isolation kit according to manufacturer's protocol, RNA was extracted and subsequently reverse-transcribed with the ABI high capacity cDNA reverse transcription kit. Quantification was done by real-time PCR, whereby the cDNA (2 μL) was added to a master mix that contained 0.5 μL mouse Gapdh TaqMan Probe, 0.5 μL Ttr TaqMan probes, and 5 μL Lightcycler 480 probe master mix per well in a 384-well 50 plate. Real-time PCR was accomplished in an ABI 7900HT RT-PCR system using the ΔΔCt (RQ) assay. Each duplex and concentration was tested in four biological replicates. To calculate relative fold change, real time data were analyzed using the ΔΔCt method and normalized to assays performed with cells transfected with 10 nM nonspecific siRNA. IC50 values were calculated using a 4-parameter fit model using XLFit.

[1] = TTR-3, antisense strand modified at position 5, primary mouse hepatocytes
[2] = TTR-3, antisense strand modified at position 7, primary mouse hepatocytes
[3] = TTR-4, modification at antisense position 7, primary mouse hepatocytes
[4] = antisense Position 5, Seq 3 (TTR)
[5] = antisense Position 7, Seq 3 (TTR)
[6] = antisense Position 7, Seq 4 (TTR)

| Substance | pIC50 [1] | pIC50 [2] | pIC50 [3] | On-target TX [4] | On-target TX [5] | On-target TX [6] |
| --- | --- | --- | --- | --- | --- | --- |
| 5′-(R)-Me-UNA [Mod 5 (R)] | 11.83 | 10.86 | 10.05 | 0.45 | 0.50 | −1.26 |
| 2′-(S)-Me-UNA [Mod 7 (S)] | 11.60 | 10.63 | 10.31 | 0.43 | 0.72 | −0.79 |
| 3′-(R)-Me-UNA [Mod 6 (R)] | 11.80 | 10.46 | 10.45 | −0.28 | 0.67 | −0.98 |
| 2′-(R)-Me-UNA [Mod 7 (R)] | – | 10.73 | 10.56 | 0.50 | 0.15 | −0.99 |
| 3′-(S)-Me-UNA [Mod 6 (S)] | 11.50 | 10.49 | 10.62 | 0.18 | 0.06 | −0.31 |
| 5′-(S)-Me-UNA [Mod 5 (S)] | 11.96 | 10.82 | 10.38 | −0.03 | −0.04 | −0.97 |
